These results are taken from patent publication US9593084B2 (Parion Sciences, Inc., priority 2012, dated 2017).

A word on the IC50: it is the concentration that gives 50% inhibition.

In this test the target is T1, epithelial sodium channel (Canis lupus familiaris, UniProt A0A8I3MKE6+A0A8I3Q679+Q95165).
T1 construct: endogenous in cells; host or cells: primary canine bronchial epithelial cells cultured at air-liquid interface
T1 sequence (A0A8I3Q679 1-649): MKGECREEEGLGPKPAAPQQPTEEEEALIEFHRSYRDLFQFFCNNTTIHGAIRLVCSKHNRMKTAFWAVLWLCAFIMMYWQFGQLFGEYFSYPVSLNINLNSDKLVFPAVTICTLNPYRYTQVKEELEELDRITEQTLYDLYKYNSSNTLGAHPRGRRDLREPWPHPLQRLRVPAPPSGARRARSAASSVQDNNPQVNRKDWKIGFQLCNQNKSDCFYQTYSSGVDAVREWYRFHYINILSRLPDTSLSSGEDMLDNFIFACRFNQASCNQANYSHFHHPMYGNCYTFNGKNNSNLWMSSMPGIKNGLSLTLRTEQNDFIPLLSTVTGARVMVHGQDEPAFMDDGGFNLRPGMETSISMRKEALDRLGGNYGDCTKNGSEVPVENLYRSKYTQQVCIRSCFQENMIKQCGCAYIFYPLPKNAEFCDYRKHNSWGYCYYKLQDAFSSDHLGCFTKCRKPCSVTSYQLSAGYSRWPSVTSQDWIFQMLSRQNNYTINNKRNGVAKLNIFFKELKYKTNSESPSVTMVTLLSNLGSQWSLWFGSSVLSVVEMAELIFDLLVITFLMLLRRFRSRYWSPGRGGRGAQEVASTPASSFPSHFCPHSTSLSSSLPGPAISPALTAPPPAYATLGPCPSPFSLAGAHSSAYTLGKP
T1 sequence (Q95165 1-641): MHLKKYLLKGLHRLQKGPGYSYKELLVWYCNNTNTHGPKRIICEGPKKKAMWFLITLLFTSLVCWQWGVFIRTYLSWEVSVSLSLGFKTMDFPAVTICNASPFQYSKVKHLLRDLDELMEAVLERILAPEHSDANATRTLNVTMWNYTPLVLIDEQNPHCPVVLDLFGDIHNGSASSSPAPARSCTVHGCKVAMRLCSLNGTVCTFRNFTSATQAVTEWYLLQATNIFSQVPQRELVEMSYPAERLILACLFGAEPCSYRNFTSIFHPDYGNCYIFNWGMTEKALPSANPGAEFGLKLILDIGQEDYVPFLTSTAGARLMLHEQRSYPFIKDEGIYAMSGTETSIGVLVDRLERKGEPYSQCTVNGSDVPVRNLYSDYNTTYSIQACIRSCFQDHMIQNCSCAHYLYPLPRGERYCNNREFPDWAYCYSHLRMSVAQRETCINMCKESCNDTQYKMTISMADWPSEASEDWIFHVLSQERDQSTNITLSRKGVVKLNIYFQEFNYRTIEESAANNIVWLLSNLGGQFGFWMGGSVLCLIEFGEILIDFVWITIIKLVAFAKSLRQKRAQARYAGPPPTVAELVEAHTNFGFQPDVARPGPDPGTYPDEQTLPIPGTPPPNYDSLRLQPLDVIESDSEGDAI
T1 sequence (A0A8I3MKE6 1-646): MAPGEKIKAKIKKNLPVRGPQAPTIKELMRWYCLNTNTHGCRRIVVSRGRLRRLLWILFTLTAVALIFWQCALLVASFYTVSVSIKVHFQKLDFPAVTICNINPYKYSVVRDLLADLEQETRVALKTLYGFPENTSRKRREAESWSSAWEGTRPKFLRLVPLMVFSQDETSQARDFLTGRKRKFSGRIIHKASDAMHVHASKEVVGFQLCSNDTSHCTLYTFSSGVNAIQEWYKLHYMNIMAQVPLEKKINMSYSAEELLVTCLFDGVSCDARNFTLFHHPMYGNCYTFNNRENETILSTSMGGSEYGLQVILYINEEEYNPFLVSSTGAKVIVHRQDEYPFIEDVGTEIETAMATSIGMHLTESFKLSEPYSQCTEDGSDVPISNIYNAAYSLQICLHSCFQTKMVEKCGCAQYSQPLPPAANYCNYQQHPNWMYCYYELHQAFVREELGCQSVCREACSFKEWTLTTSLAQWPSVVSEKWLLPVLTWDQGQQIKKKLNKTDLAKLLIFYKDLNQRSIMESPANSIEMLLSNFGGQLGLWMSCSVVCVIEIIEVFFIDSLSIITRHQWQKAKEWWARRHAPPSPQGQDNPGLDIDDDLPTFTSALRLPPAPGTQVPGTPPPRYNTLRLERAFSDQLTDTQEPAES
Briefly: Inhibition of short-circuit current (ISC) in airway epithelial monolayers in Ussing chambers. Format: cell-based, canine. The settings on record: canine bronchial epithelial cells, short-circuit current; read-out: Potency of Sodium Channel Blockade IC50. The method, then: One assay used to assess mechanism of action and/or potency of the compounds of the present invention involves the determination of lumenal drug inhibition of airway epithelial sodium currents measured under short circuit current (ISC) using airway epithelial monolayers mounted in Using chambers. Cells obtained from freshly excised human, dog, sheep or rodent airways are seeded onto porous 0.4 micron Snapwelff Inserts (CoStar), cultured at air-liquid interface (ALI) conditions in hormonally defined media, and assayed for sodium transport activity (ISC) while bathed in Krebs Bicarbonate Ringer (KBR) in Using chambers. All test drug additions are to the lumenal bath with half-log dose addition protocols (from 1×10^−11 M to 3×10^−5 M), and the cumulative change in ISC (inhibition) recorded. All drugs are prepared in dimethyl sulfoxide as stock solutions at a concentration of 1×10^−2 M and stored at −20° C. […] After the maximal concentration ([…]) is administered, the lumenal bath is exchanged three times with fresh drug-free KBR solution, and the resultant ISC measured after each wash for approximately 5 minutes in duration. Reversibility is defined as the percent return to the baseline value for sodium current after the third wash. All data from the voltage clamps are collected via a computer interface and analyzed off-line.
Dose-effect relationships for all compounds are considered and analyzed by the Prism 3.0 program.

For `N=C(NCCCCc1ccc(C[C@H](N)C(=O)Nc2ccc(CCCN(C[C@H](O)[C@@H](O)[C@H](O)[C@H](O)CO)C[C@H](O)[C@@H](O)[C@H](O)[C@H](O)CO)cc2)c2ccccc12)NC(=O)c1nc(Cl)c(N)nc1N` [Compound 33, 3,5-diamino-N—(N-(4-(4-((S)-2-amino-3-(4-(3-(bis((2S,3R,4R,5R)-2,3,4,5,6-pentahydroxyhexyl)amino)propyl)phenylamino)-3-oxopropyl)naphthalen-1-yl)butyl)carbamimidoyl)-6-chloropyrazine-2-carboxamide], the IC50 stood at 21.8 nM.
